Laboratory results taken from patent US20250186430A1, “THERAPY OF INTEROCEPTION DISORDERS WITH CGRP RECEPTOR ANTAGONISTS” (priority 2022, published 2025).

Legend:
[1] = system: mice with chronic arthritis due to injection of Freund's adjuvant; assay: chronic arthritis (Freund's adjuvant) model of malaise due to chronic pain; format: in vivo; conditions: gepant 10 mg/kg orally, daily, starting two days before arthritis induction
Description: FIG. 2. Effects of rimegepant, ubrogepant, atogepant and zavegepant (10 mg/kg orally, daily, starting two days before arthritis induction) on food consumption/anorexia, weight loss and spontaneous motility in mice with chronic arthritis due to injection of Freund's adjuvant as an experimental model of malaise due to chronic pain. * p<0.05, ** p<0.01, *** p<0.001 vs Arthritis, ANOVA and Tukeys post hoc test.

[2] = system: rats treated with a diet containing 0.75% adenine; assay: 0.75% adenine diet model of renal insufficiency; format: in vivo; conditions: gepant 10 mg/kg orally, daily, starting two days before nephrotoxic diet
Description: Further, we have tested the gepants in rats treated with a diet containing 0.75% adenine as an experimental model of renal insufficiency.
FIG. 6. Effects of rimegepant, ubrogepant, atogepant and zavegepant (10 mg/kg orally, daily, starting two days before exposure to the nephrotoxic diet) on body weight loss and food consumption/anorexia in rats exposed to a diet containing 0.75% adenine as an experimental model of renal insufficiency. *p<0.05, ** p<0.01, *** p<0.001 vs Kidney Failure, ANOVA and Tukeys post hoc test.

[3] = system: rats injected intraperitoneally with lipopolysaccharides from Salmonella Typhimurium; assay: lipopolysaccharide model of malaise due to sepsis/systemic immune activation; format: in vivo; conditions: gepant 10 mg/kg orally, daily, starting two days before lipopolysaccharides injection
Description: FIG. 9. Effects of rimegepant, ubrogepant, atogepant and zavegepant (10 mg/kg orally, daily, starting two days before lipopolysaccharides injection) on body weight loss and food consumption/anorexia in rats injected intraperitoneally with lipopolysaccharides from Salmonella Typhimurium as a classic model of malaise due to sepsis/systemic immune activation. * p<0.05, ** p<0.01, vs Sepsis, ANOVA and Tukeys post hoc test.

[4] = system: rats subjected to laparotomy and gut manipulation; assay: laparotomy and gut manipulation model of malaise due to abdominal surgery; format: in vivo; conditions: gepant 10 mg/kg orally, daily, starting two days before surgery
Description: FIG. 3. Effects of rimegepant, ubrogepant, atogepant and zavegepant (10 mg/kg orally, daily, starting two days before surgery) on body weight loss and food consumption/anorexia in rats subjected to laparotomy and gut manipulation as an experimental model of malaise due to abdominal surgery. * p<0.05, ** p<0.01, *** p<0.001 vs Laparotomy, ANOVA and Tukeys post hoc test.

[5] = system: mice sensitized and re-challenged with ovalbumin; assay: ovalbumin model of asthma or chronic obstructive pulmonary disease; format: in vivo; conditions: gepant 10 mg/kg orally, daily, starting two days before antigen rechallenge
Description: FIG. 7. Effects of rimegepant, ubrogepant, atogepant and zavegepant (10 mg/kg orally, daily, starting two days before antigen rechallenge) on spontaneous motility, body weight loss and sweet water ingestion of mice sensitized and re-challenged with ovalbumin as a model of asthma or chronic obstructive pulmonary disease. * p<0.05, ** p<0.01, *** p<0.001 vs […], ANOVA and Tukeys post hoc test.

[6] = system: rats exposed to the chemotherapeutic drug cisplatin; assay: cisplatin model of malaise due to antineoplastic chemotherapy; format: in vivo; conditions: cisplatin 6 mg/kg intraperitoneal, gepant 10 mg/kg orally, daily, starting two days before cisplatin
Description: FIG. 1. Effect of rimegepant, ubrogepant, atogepant and zavegepant (10 mg/kg orally, daily, starting two days before cisplatin) on food consumption/anorexia, weight loss and weight body recovery in rats exposed to cisplatin (6 mg/kg, intraperitoneal), as an experimental model of malaise due to antineoplastic chemotherapy. * p<0.05, ** p<0.01, *** p<0.001, vs control, ANOVA and Tukeys post hoc test.

[7] = system: rats injected with Yoshida hepatoma; assay: Yoshida hepatoma model of malaise due to tumor cachexia; format: in vivo; conditions: gepant 10 mg/kg orally, daily, starting two days before tumor injection
Description: As additional models of malaise due to interoceptive information, we have adopted those of tumor cachexia and sepsis.
FIG. 8. Effects of rimegepant, ubrogepant, atogepant and zavegepant (10 mg/kg orally, daily, starting two days before tumor injection) on body weight loss, muscle mass and food consumption/anorexia in rats injected with Yoshida hepatoma, as classic model of malaise due to tumor cachexia. * p<0.05, ** p<0.01, *** p<0.001. **** p<0.0001 vs Hepatoma, ANOVA and Tukeys post hoc test.

[8] = system: rats treated with carbon tetrachloride; assay: carbon tetrachloride model of malaise due to hepatopathy; format: in vivo; conditions: gepant 10 mg/kg orally, daily, starting two days before carbon tetrachloride
Description: Further, we have tested the gepants in a model of hepatopathy, a condition that typically prompts asthenia, weight loss and anhedonia.
FIG. 4. Effects of rimegepant, ubrogepant, atogepant and zavegepant (10 mg/kg orally, daily, starting two days before carbon tetrachloride) on body weight loss and sweet water consumption in rats treated with carbon tetrachloride as a model of malaise due to hepatitis/hepatopathy. * p<0.05, ** p<0.01, *** p<0.001 vs Hepatitis, ANOVA and Tukeys post hoc test.

[9] = background art; cited from earlier work
[10] = system: rats injected with cerulein; assay: cerulein model of pancreatitis; format: in vivo; conditions: gepant 10 mg/kg orally, daily, starting two days before cerulein treatment
Description: FIG. 5. Effects of rimegepant, ubrogepant, atogepant and zavegepant (10 mg/kg orally, daily, starting two days before cerulein treatment) on body weight loss and spontaneous motility in rats injected with cerulein as an experimental model of pancreatitis. * p<0.05, ** p<0.01, *** p<0.001 vs Pancreatitis, ANOVA and Tukeys post hoc test.

[11] = background art; cited from earlier work; remark: listed apart in the source

Compound	food aversion/anorexia [1]	spontaneous motility [1]	weight loss [1]	decrease of food consumption/anorexia [2]	weight loss [2]	decrease of food consumption/anorexia [3]	weight loss [3]	food aversion/anorexia [4]	weight loss [4]	decrease of sweet water consumption [5]	spontaneous motility (parameter of malaise) [5]	weight loss [5]	body weight loss [6]	food aversion/anorexia [6]	weight body recovery [6]	loss of muscle mass [7]	reduction of food consumption/anorexia [7]	weight loss [7]	sweet water consumption (index of motivational behavior and reduced anhedonia) [8]	hepatotoxicity [9]	other results
C[C@@H]1[C@H](c2c(F)ccc(F)c2F)C[C@H](NC(=O)c2cnc3c(c2)C[C@@]2(C3)C(=O)Nc3ncccc32)C(=O)N1CC(F)(F)F [atogepant]	reduces	increases	reduces	reduces	reduces	reduces	reduces	in part	completely prevents	reduces	reduces	reduces	reduces	reduces	accelerates	counteracting	counteracting	reducing	triggers an increase	non-hepatotoxic	weight loss [8]: reduces; reduction in spontaneous motility [10]: prevents; weight loss [10]: prevents
Cc1cc(C[C@@H](NC(=O)N2CCC(c3cc4ccccc4[nH]c3=O)CC2)C(=O)N2CCN(C3CCN(C)CC3)CC2)cc2cn[nH]c12 [zavegepant]	reduces	increases	reduces	reduces	reduces	reduces	reduces	in part	completely prevents	reduces	reduces	reduces	reduces	reduces	accelerates	counteracting	counteracting	reducing	triggers an increase	non-hepatotoxic	weight loss [8]: reduces; reduction in spontaneous motility [10]: prevents; weight loss [10]: prevents
N[C@@H]1c2cccnc2[C@H](OC(=O)N2CCC(n3c(=O)[nH]c4ncccc43)CC2)CC[C@H]1c1cccc(F)c1F [rimegepant]	reduces	increases	reduces	reduces	reduces	reduces	reduces	in part	completely prevents	reduces	reduces	reduces	reduces	reduces	accelerates	counteracting	counteracting	reducing	triggers an increase	non-hepatotoxic	weight loss [8]: reduces; reduction in spontaneous motility [10]: prevents; weight loss [10]: prevents
O=C(N[C@@H]1CC[C@@H](c2cccc(F)c2F)CN(CC(F)(F)F)C1=O)N1CCC(n2c(=O)[nH]c3ncccc32)CC1 [telcagepant]	–	–	–	–	–	–	–	–	–	–	–	–	–	–	–	–	–	–	–	occurrence of hepatotoxicity	efficacy as anti-migraine drugs [11]: proved efficacious
C[C@@H]1[C@H](c2ccccc2)C[C@H](NC(=O)c2cnc3c(c2)C[C@@]2(C3)C(=O)Nc3ncccc32)C(=O)N1CC(F)(F)F [ubrogepant]	reduces	increases	reduces	reduces	reduces	reduces	reduces	in part	completely prevents	reduces	reduces	reduces	reduces	reduces	accelerates	counteracting	counteracting	reducing	triggers an increase	non-hepatotoxic	weight loss [8]: reduces; reduction in spontaneous motility [10]: prevents; weight loss [10]: prevents
NCCCC[C@H](NC(=O)[C@@H](Cc1cc(Br)c(O)c(Br)c1)NC(=O)N1CCC(N2Cc3ccccc3NC2=O)CC1)C(=O)N1CCN(c2ccncc2)CC1 [olcegepant]	–	–	–	–	–	–	–	–	–	–	–	–	–	–	–	–	–	–	–	occurrence of hepatotoxicity	efficacy as anti-migraine drugs [11]: proved efficacious
